Laboratory results published in ChEMBL document CHEMBL3244240, “Antitubercular 2,8-bis(alkylaminomethyl)phenazines” (1978).
In brackets after ≈: the same amount, converted by molar mass. Activity calls are given as the source filed them. No cut-off for these calls is given here.

How the values were obtained:
[1] = test system: Mycobacterium tuberculosis; assay: Antitubercular against Mycobacterium tuberculosis H37Rv infected in mouse assessed as host survival at 19 mg/kg/day administered with food for 19 days measured on day 30; format: functional, organism-based
[2] = test system: Mycobacterium tuberculosis; assay: Antitubercular against Mycobacterium tuberculosis H37Rv infected in mouse assessed as host survival at 75 mg/kg/day administered with food for 19 days measured on day 30; format: functional, organism-based
[3] = test system: Mycolicibacterium smegmatis; assay: Antitubercular against Mycobacterium smegmatis ATCC 607 by agar dilution method; format: functional
[4] = test system: Mycobacterium tuberculosis; assay: Antitubercular against Mycobacterium tuberculosis H37Rv infected in mouse assessed as host survival at 5 mg/kg/day administered with food for 19 days measured on day 30; format: functional, organism-based
[5] = test system: Mycobacterium tuberculosis; assay: Antitubercular against Mycobacterium tuberculosis H37Rv infected in mouse assessed as host survival at 9 mg/kg/day administered with food for 19 days measured on day 30; format: functional, organism-based
[6] = test system: Mycobacterium tuberculosis; assay: Antitubercular against Mycobacterium tuberculosis H37Rv infected in mouse assessed as host survival at 2.5 mg/kg/day administered with food for 19 days measured on day 30; format: functional, organism-based

Compound	MIC [3] [µg/mL]	other results
CCCCN(CCCC)Cc1ccc2nc3ccc(CN(CCCC)CCCC)cc3nc2c1.Cl	2.5	Activity [1]: inactive; Activity [2]: Active; Activity [4]: inactive
Cl.c1ccc(N2CCN(Cc3ccc4nc5ccc(CN6CCN(c7ccccn7)CC6)cc5nc4c3)CC2)nc1	125	
CCCCCCN(CCCCCC)Cc1ccc2nc3ccc(CN(CCCCCC)CCCCCC)cc3nc2c1	62 (≈ 108 µM)	
CC1CN(Cc2ccc3nc4ccc(CN5CC(C)NC(C)C5)cc4nc3c2)CC(C)N1.Cl (stereo not drawn)	62	
Cl.c1ccc(CN2CCN(Cc3ccc4nc5ccc(CN6CCN(Cc7ccccc7)CC6)cc5nc4c3)CC2)cc1	10	
CCCCCN(CCCCC)Cc1ccc2nc3ccc(CN(CCCCC)CCCCC)cc3nc2c1	62 (≈ 119 µM)	
NNC(=O)c1ccncc1 [ISONIAZID]	0.05 (≈ 0.365 µM)	Activity [5]: Active; Activity [6]: inactive
CCCCCCCN(CCCCCCC)Cc1ccc2nc3ccc(CN(CCCCCCC)CCCCCCC)cc3nc2c1	62 (≈ 98.2 µM)	
CCN(CC)Cc1ccc2nc3ccc(CN(CC)CC)cc3nc2c1.Cl	5	
CCCCCCCCN(CCCCCCCC)Cc1ccc2nc3ccc(CN(CCCCCCCC)CCCCCCCC)cc3nc2c1	62 (≈ 90.2 µM)	
CN1CCN(Cc2ccc3nc4ccc(CN5CCN(C)CC5)cc4nc3c2)CC1	62 (≈ 153 µM)	
CC[C@@H](CO)NCCN[C@@H](CC)CO [ETHAMBUTOL]	0.5 (≈ 2.45 µM)	
c1cc2nc3ccc(CN4CCCCC4)cc3nc2cc1CN1CCCCC1	62 (≈ 166 µM)	
